Test results published in US8227472B2, “Substituted pyrrolo-pyrazole derivatives as kinase inhibitors” (Nerviano Medical Sciences S.R.L., priority 2006, dated 2012).
pIC50: −log10 of the molar value.

Legend:
PLK-1 = biological target: T1, PLK-1 (Homo sapiens, UniProt P53350); test: Biochemical assay for inhibitors of PLK-1 kinase activity (33P trans-phosphorylation, Dowex); conditions: PLK-1 3 nM, 40 microM ATP, 85 microM alpha-casein
T1 construct: His tag (N, cleaved yes); TEV cleavage site (N, cleaved yes); made in house; host or cells: High5 insect cells (baculovirus generated in Sf9)
Text: Cloning, Expression and Purification of Recombinant PLK1 Kinase Domain.
PLK1 kinase domain (corresponding to residues 2-345 of the full length sequence, see Swiss-Prot accession number P53350) was PCR amplified from the full-length human PLK1 gene purchased from imaGenes as clone IRATp970A078D.
For cloning purposes, the oligonucleotides included attB sites in order to obtain an attB-flanked PCR product suitable for cloning using the Gateway® technology (Invitrogen). Furthermore, for purification purposes, forward primer included a TEV® cleavage site (Amersham Biosciences). The resulting PCR product was cloned in the pDONR221 plasmid and then transferred in the baculovirus expression vector pVL1393 (Invitrogen) Gateway®-modified. For expression and purification purposes, a His tag was added N-terminal to the PLK kinase domain. Cloning was performed according to the protocols described in the Gateway® manual.
Baculoviruses were generated by cotransfecting Sf9 insect cells with the expression vector and the viral DNA using the BaculoGold® transfection kit (Pharmingen). Viral supernatant was recovered after 5 days and subjected to 3 rounds of amplification to increase viral titer. Recombinant protein was produced by infecting High5 insect cells. After 48 hours of infection, cells were recovered, pelletted and freezed at −80° C. For purification of recombinant protein, pellet was thawed, resuspended in lysis buffer (PBS, NaCl 150 mM, CHAPS 0.1%, DTT 20 mM, glycerol 10%, protease inhibitors) and lysed by sonication. Lysate was cleared by centrifugation and loaded on a Nichel affinity column. After extensive wash, recombinant protein was cleaved and eluted by incubation with TEV® protease.
Biochemical Assay for Inhibitors of PLK-1 Kinase Activity
The inhibitory activity of putative kinase inhibitors and the potency of selected compounds were determined using a trans-phosphorylation assay.
Specific peptide or protein substrates are trans-phosphorylated by their specific serine-threonine or tyrosine kinase, in the presence of ATP traced with ^33P-γ-ATP, and in the presence of their own optimal buffer and cofactors.
At the end of the phosphorylation reaction, more than 98% cold ATP and radioactive ATP is captured by an excess of the ion exchange dowex resin; the resin then settles down to the bottom of the reaction plate by gravity.
Supernatant, containing the phosphorylated substrate, is subsequently withdrawn and transferred into a counting plate, then evaluated by β-counting.
Kinase buffer was composed of 50 mM HEPES pH 7.9 containing 10 mM MnCl2, 1 mM DTT, 3 microM NaVO3, and 0.2 mg/mL BSA, 10 mM β-glycerophosphate.
The kinase assay was run with a final enzyme concentration PLK-1 of 3 nM, in presence of 40 microM ATP, 3 nM ^33P-γ-ATP and 85 microM substrate alpha-casein, SIGMA, #C-3240.
1) 3× Enzyme mix (done in Kinase Buffer 3×), 5 microL/well
2) 3× substrate and ATP mix (done in ddH2O), together with ^33P-γ-ATP, 5 microL/well
3) 3× test compounds (diluted into ddH2O—3% DMSO)—5 microL/well
For % inhibition studies, individual dilution plates at 1 mM, 100 microM and 10 microM are prepared in 100% DMSO, then diluted at a 3× concentration (30, 3 and 0.3 microM) in ddH2O, 3% DMSO. A Multimek 96 (Beckman) is used for dilutions and compound pipetting into the test plates
For IC50 determination, compounds are received as 1 mM, 100% DMSO solutions, plated into the first column of a microtiter plate (A1 to G1), 100 microL.
A Biomek 2000 (Beckman) is used for serial 1:3 dilutions in water, 3% DMSO, from column A1 to A10 and for all the seven compounds in the plate. In a standard experiment, the highest concentration of all compounds is 30 microM, then diluted in the final test mixture down to 10 microM. […]

[1] = tested on: A2780 human ovarian cancer cells; test: In vitro cell proliferation assay, A2780 (CellTiter-Glo); format: cell-based; conditions: 72 hours
Procedure: In Vitro Cell Proliferation Assay
A2780 human ovarian and MCF7 human breast cancer cells (1250 cells/well) were seeded in white 384 well-plates in complete medium (RPMI1640 or EMEM plus 10% Fetal bovine serum) and treated with compounds dissolved in 0.1% DMSO, 24 h after seeding. The cells were incubated at 37° C. and 5% CO2 and after 72 hours the plates were processed using CellTiter-Glo assay (Promega) following the manufacturer's instruction.
CellTiter-Glo is a homogenous method based on the quantification of the ATP present, an indicator of metabolitically active cells. ATP is quantified using a system based on luciferase and D-luciferin resulting into light generation. The luminescent signal is proportional to the number of cells present in culture.
Briefly 25 microL/well reagent solution are added to each wells and after 5 minutes shacking microplates are red by a luminometer. The luminescent signal is proportional to the number of cells present in culture.

T1 sequence (P53350 2-345): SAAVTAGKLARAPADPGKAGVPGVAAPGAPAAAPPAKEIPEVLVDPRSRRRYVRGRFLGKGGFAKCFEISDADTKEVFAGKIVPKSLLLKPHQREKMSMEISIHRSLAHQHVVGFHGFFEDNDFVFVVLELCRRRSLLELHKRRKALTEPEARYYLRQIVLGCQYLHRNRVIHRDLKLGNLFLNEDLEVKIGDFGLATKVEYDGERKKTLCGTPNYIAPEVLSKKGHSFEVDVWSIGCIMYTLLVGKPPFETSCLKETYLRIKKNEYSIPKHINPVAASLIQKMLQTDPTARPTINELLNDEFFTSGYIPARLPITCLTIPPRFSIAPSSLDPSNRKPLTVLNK

| pIC50 (PLK-1) | pIC50 [1] | SMILES |
| --- | --- | --- |
| 7.28 | 7.15 | CN1CCN(c2ccc(C(=O)Nc3n[nH]c4c3CN(C(=O)Cc3cccs3)C4(C)C)cc2)CC1 [Compound 60, N-[6,6-dimethyl-5-(2-thienylacetyl)-1,4,5,6-tetrahydropyrrolo[3,4-c]pyrazol-3-yl]-4-(4-methylpiperazin-1-yl)benzamide] |
| 6.64 | 6.68 | Cc1ccc(C(=O)Nc2n[nH]c3c2CN(C(=O)Nc2c(Cl)cccc2Cl)C3(C)C)cc1 [Compound 64, N-(2,6-dichlorophenyl)-6,6-dimethyl-3-[(4-methylbenzoyl)amino]-4,6-dihydropyrrolo[3,4-c]pyrazole-5(1H)-carboxamide] |
| 7.02 | 7.72 | CCc1ccccc1NC(=O)N1Cc2c(NC(=O)c3ccc(N4CCN(C)CC4)cc3)n[nH]c2C1(C)C [Compound 178, N-(2-ethylphenyl)-6,6-dimethyl-3-{[4-(4-methylpiperazin-1-yl)benzoyl]amino}-4,6-dihydropyrrolo[3,4-c]pyrazole-5(1H)-carboxamide] |

The next lines start with the compound.

| SMILES | pIC50 (PLK-1) | pIC50 [1] |
| --- | --- | --- |
| CN1CCN(c2ccc(C(=O)Nc3n[nH]c4c3CN(C(=O)Cc3ccccc3C(F)(F)F)C4(C)C)cc2)CC1 [Compound 44, N-(6,6-dimethyl-5-{[2-(trifluoromethyl)phenyl]acetyl}-1,4,5,6-tetrahydropyrrolo[3,4-c]pyrazol-3-yl)-4-(4-methylpiperazin-1-yl)benzamide] | 7.12 | 6.42 |
| CC1(C)c2[nH]nc(NC(=O)c3cccc(N)c3)c2CN1C(=O)Nc1c(Cl)cccc1Cl [Compound 250, 3-[(3-aminobenzoyl)amino]-N-(2,6-dichlorophenyl)-6,6-dimethyl-4,6-dihydropyrrolo[3,4-c]pyrazole-5(1H)-carboxamide] | 7.52 | 6.92 |
| CC1(C)c2[nH]nc(NC(=O)c3ccc(N)cc3)c2CN1C(=O)Nc1c(Cl)cccc1Cl [Compound 251, 3-[(4-aminobenzoyl)amino]-N-(2,6-dichlorophenyl)-6,6-dimethyl-4,6-dihydropyrrolo[3,4-c]pyrazole-5(1H)-carboxamide] | 7.62 | 7.20 |
